Data on two compounds can be found in publication PMC8600679, “Substituted Two- to Five-Ring Polycyclic Aromatic Compounds Are Potent Agonists of Atlantic Cod (Gadus morhua) Aryl Hydrocarbon Receptors Ahr1a and Ahr2a” (Environmental Science & Technology, 2021).

Each structure is given as a SMILES string. Read-outs that look alike come from different tables or passages of the source.

Details of assay [1]: method as in PMID 29505926. Particulars: cited from earlier work; for toxic equivalent factor (TEF): toxic potential relative to the toxicity of BAP.
A further assay deals with Atlantic cod Ahr1a (Gadus morhua, UniProt A0A6H1Z2L5). Put plainly: cell-based. Particulars: for Ahr1a REP25: EC25 of TCDD divided by concentration of PAC giving 25% of TCDD response; for Efficacy compared to TCDD with Ahr1a: Welch's t-test, Supporting Table S6.
Sequence of Atlantic cod Ahr1a (A0A6H1Z2L5 1-957): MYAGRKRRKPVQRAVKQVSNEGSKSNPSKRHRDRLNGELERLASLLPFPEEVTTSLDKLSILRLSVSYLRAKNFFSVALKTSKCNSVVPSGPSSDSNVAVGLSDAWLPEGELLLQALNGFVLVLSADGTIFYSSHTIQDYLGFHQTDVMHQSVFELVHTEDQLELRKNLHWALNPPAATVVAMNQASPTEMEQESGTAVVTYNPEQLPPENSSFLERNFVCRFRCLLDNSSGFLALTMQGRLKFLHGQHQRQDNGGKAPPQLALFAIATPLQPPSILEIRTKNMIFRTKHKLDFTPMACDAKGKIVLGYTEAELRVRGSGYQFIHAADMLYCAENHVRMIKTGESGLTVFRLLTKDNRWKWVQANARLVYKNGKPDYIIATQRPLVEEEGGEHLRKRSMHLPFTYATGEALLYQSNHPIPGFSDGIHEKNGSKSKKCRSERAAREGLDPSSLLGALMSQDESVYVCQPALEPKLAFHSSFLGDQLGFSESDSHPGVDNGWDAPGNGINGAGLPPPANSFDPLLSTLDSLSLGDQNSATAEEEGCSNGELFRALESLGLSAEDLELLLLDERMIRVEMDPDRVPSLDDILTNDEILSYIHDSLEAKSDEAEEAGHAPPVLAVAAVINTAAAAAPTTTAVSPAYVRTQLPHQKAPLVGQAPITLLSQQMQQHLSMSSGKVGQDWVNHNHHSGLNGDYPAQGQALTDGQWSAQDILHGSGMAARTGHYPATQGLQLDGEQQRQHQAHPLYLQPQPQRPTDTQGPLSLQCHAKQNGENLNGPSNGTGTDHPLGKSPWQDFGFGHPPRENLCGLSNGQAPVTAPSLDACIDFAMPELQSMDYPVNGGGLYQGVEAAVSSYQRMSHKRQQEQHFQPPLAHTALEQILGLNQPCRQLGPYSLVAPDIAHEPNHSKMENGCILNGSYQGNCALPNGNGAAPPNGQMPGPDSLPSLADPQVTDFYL
Sequence of Atlantic cod Ahr1a (A0A8C5CZZ9 1-645 partner): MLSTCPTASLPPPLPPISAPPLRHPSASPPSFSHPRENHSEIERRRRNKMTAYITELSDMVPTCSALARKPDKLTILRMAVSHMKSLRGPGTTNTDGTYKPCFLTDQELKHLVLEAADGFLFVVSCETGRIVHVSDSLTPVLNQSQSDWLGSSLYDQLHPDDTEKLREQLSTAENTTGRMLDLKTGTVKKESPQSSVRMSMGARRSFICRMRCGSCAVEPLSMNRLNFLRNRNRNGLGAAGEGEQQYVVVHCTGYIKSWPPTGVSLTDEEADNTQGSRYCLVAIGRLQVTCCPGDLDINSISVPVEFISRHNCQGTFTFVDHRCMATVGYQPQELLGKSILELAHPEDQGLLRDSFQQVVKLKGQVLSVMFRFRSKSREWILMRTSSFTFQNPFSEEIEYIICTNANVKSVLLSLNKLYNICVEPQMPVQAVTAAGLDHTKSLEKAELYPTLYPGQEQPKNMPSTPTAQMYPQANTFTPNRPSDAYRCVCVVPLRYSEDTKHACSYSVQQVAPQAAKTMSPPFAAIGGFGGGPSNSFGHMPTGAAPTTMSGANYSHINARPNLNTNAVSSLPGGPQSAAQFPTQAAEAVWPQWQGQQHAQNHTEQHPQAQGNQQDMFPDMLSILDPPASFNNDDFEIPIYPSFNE
The next assay addresses T1, Atlantic cod Ahr2a (Gadus morhua, UniProt A0A6H1Z3G8).
T1 sequence (A0A6H1Z3G8 1-1127): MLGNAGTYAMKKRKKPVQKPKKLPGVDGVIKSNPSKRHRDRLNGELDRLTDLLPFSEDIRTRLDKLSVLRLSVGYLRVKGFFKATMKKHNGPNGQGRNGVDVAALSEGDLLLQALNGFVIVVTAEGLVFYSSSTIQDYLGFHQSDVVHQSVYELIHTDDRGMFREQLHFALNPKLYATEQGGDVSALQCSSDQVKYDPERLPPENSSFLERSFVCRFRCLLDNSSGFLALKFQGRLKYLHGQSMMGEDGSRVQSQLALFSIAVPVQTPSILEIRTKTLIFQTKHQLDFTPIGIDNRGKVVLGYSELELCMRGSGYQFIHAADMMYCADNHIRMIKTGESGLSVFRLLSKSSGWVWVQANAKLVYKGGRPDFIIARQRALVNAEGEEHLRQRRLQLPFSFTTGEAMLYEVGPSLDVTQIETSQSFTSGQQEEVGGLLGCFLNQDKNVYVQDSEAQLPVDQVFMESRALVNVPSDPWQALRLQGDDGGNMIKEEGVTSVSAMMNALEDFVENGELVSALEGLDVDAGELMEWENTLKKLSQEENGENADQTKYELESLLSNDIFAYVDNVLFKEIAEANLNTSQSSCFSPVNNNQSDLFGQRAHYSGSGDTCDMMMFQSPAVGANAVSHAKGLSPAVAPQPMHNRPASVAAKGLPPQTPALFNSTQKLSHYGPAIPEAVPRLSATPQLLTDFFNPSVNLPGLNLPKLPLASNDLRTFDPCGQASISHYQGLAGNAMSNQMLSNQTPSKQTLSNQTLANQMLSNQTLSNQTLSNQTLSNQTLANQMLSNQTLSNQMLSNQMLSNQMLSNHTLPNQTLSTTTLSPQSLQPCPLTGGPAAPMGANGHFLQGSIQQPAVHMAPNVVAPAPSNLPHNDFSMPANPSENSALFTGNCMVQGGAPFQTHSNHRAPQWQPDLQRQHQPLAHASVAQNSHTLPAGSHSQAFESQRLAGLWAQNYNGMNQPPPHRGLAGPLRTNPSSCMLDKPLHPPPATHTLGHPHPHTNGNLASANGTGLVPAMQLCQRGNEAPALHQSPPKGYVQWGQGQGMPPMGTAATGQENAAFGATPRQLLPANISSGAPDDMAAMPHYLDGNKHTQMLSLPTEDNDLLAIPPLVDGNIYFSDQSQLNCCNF
Nature of the assay: cell-based. Particulars: for Efficacy compared to TCDD via Ahr2a: Welch's t-test, Supporting Table S6.

Take `Cc1cccc2c1ccc1c3ccccc3ccc21` [1-MC, 1-Methylchrysene]: in assay [1] (from TEF values), the “agonistic potential, times higher than CHR” value is 10 times. Also, the “toxic equivalent factor (TEF)” value in assay [1] is 0.1. For the same compound, the EC50 was 175 nM on Atlantic cod Ahr1a (Ahr1a EC50 (nM), COS-7 cells, 24 h exposure); 172 nM on Atlantic cod Ahr2a (Ahr2a EC50 (nM), COS-7 cells, 24 h exposure); 172 nM at Atlantic cod Ahr2a (Potency (EC50, nM) Ahr2a, Supplementary Table S5). Also, the Emax on Atlantic cod Ahr1a (COS-7, read-out: Ahr1a Relative Emax (%)) turned out to be 45.8%; at Atlantic cod Ahr2a (COS-7, read-out: Ahr2a Relative Emax (%)), 43.6%. Further, the “Ahr1a REP25” value on Atlantic cod Ahr1a is reported as 0.0070. Besides, the “Efficacy compared to TCDD with Ahr1a” value on Atlantic cod Ahr1a is recorded as “lower efficacies than TCDD”. Further, the “Ahr2a REP25” value at Atlantic cod Ahr2a (EC25 of TCDD divided by concentration of PAC giving 25% of TCDD response) came out at 0.022. In addition, the “Efficacy compared to TCDD via Ahr2a” value on Atlantic cod Ahr2a is “lower efficacies in comparison to TCDD”.

Consider `c1ccc2c(c1)ccc1c3ccccc3ccc21` [CHR, Chrysene], for which the “toxic equivalent factor (TEF)” value in assay [1] is on record as 0.01. In addition, the concentration giving a half-maximal response (EC50) at Atlantic cod Ahr1a (COS-7 cells, 24 h exposure, read-out: Ahr1a EC50) was found to be 481 nM; on Atlantic cod Ahr1a (Supplementary Table S5, read-out: Potency (EC50, nM) Ahr1a), 481 nM; at Atlantic cod Ahr2a (Supplementary Table S5, read-out: Potency (EC50, nM) Ahr2a) it was 3440 nM. Moreover, the “Ahr1a REP25” value at Atlantic cod Ahr1a was found to be 0.00052. Besides, at Atlantic cod Ahr1a, the “Efficacy compared to TCDD with Ahr1a” value was “lower efficacies than TCDD”. For the same compound, at Atlantic cod Ahr1a (in vitro transactivation), the “Activation of Ahr1a (agonist or not)” value is reported as “solely activate Ahr1a”. Besides, the Emax at Atlantic cod Ahr1a (percent of maximum efficacy determined for TCDD, COS-7 cells, 24 h exposure, None = no agonistic response significantly different from solvent, read-out: Ahr1a Relative Emax (%)) was 40.8%; at Atlantic cod Ahr2a (COS-7, Supplementary Table S5, read-out: Efficacy (Emax, %) Ahr2a), 3.6%. Moreover, the “Efficacy compared to TCDD via Ahr2a” value on Atlantic cod Ahr2a is on record as “lower efficacies in comparison to TCDD”. Further, the “Activation of Ahr2a (agonist or not)” value on Atlantic cod Ahr2a (in vitro transactivation) is “solely activate Ahr1a”. Also, the “Ahr2a Relative Emax (%)” value at Atlantic cod Ahr2a (percent of maximum efficacy determined for TCDD, COS-7 cells, 24 h exposure, None = no agonistic response significantly different from solvent) is reported as “None”.
